Measurements published in US7247634B2, “Rifamycin derivatives effective against drug-resistant microbes” (Cumbre Pharmaceuticals Inc., priority 2004, dated 2007).
Values after ≈ are worked out from the molar mass of the structure shown.

Columns and labels:
Format in all cases: cell-based
[1] = tested on: Streptococcus pyogenes ATCC19615; assay: MIC, microbroth dilution (NCCLS); settings: rifS strain, THY Broth, 37° C., read-out: Antimicrobial activity (MIC)
[2] = tested on: Enterococcus faecalis ATCC29212; assay: MIC, microbroth dilution (NCCLS); settings: rifS strain, BHI Broth, 37° C., read-out: Antimicrobial activity (MIC)
[3] = tested on: Staphylococcus epidermidis ATCC12228; assay: MIC, microbroth dilution (NCCLS); settings: rifS strain, Cation-Adjusted Mueller-Hinton Broth, 37° C., read-out: Antimicrobial activity (MIC)
[4] = tested on: Mycobacterium smegmatis ATCC700084; assay: MIC, microbroth dilution (NCCLS); settings: Mycolicibacterium smegmatis, rifS strain, Middlebrook Broth plus ADC Enrichment, 37° C., read-out: Antimicrobial activity (MIC)
[5] = tested on: Haemophilus influenzae ATCC10211; assay: MIC, microbroth dilution (NCCLS); settings: rifS strain, BHI Broth with NAD and hematin, 37° C., read-out: Antimicrobial activity (MIC)
[6] = tested on: Staphylococcus aureus ATCC29213 rpoB^D417Y; assay: microbe, parasite or virus in culture; settings: ATCC29213, read-out: Antimicrobial activity (MIC)
Procedure: (§1) Representative compounds were assayed for antimicrobial activity as follows: Minimum Inhibitory Concentrations (“MICs”) were determined by the microbroth dilution method as per NCCLS guidelines (National Committee for Clinical Laboratory Standards. 2000. Methods for dilution antimicrobial susceptibility tests for bacteria that grow aerobically, 5th ed. M7-A5. National Committee for Clinical Laboratory Standards, Wayne, Pa.), except that all growth incubations were conducted at 37° C. Bacterial cultures were tested in the following bacteriological media: S. aureus, S. epidermidis, and E. coli in Cation-Adjusted Mueller-Hinton Broth, S. pneumoniae in THY Broth supplemented with 1 mg/mL catalase under 5% CO2 atmosphere, S. pyogenes in THY Broth, E. faecalis in BHI Broth, H. influenzae in BHI Broth supplemented with 0.75 μL of 1 mg/mL NAD and 150 μL of 1 mg/ml hematin per 5 mL, and M. smegmatis in Middlebrook Broth plus ADC Enrichment.
(§2) S. aureus ATCC 29213 RpoB^H418Y is a rifampin-resistant strain with a mutation in RNA polymerase, the biological target of rifamycin antibiotics. […] S. aureus EN1252a gyrA^S84L grlA^S80F is a quinolone-resistant strain due to double mutations to DNA gyrase and topoisomerase IV, the two biological targets for quinolone antibiotics.

[7] = tested on: Staphylococcus aureus EN1252a gyrA^S84L grlA^S80F; assay: microbe, parasite or virus in culture; settings: read-out: Antimicrobial activity (MIC)
Procedure: as §1, §2

[8] = tested on: Staphylococcus aureus ATCC29213 rpoB^H418Y; assay: microbe, parasite or virus in culture; settings: ATCC29213, read-out: Antimicrobial activity (MIC)
Procedure: as §1, §2

[9] = tested on: Escherichia coli ATCC25922; assay: MIC, microbroth dilution (NCCLS); settings: rifS strain, Cation-Adjusted Mueller-Hinton Broth, 37° C., read-out: Antimicrobial activity (MIC)
[10] = tested on: Streptococcus pneumoniae ATCC6303; assay: MIC, microbroth dilution (NCCLS); settings: rifS strain, THY Broth with 1 mg/mL catalase, 5% CO2, 37° C., read-out: Antimicrobial activity (MIC)
[11] = tested on: Staphylococcus aureus ATCC29213; assay: MIC, microbroth dilution (NCCLS); settings: rifS strain, Cation-Adjusted Mueller-Hinton Broth, 37° C., read-out: Antimicrobial activity (MIC)

Row | Compound | MIC [1] [µg/mL] | MIC [2] [µg/mL] | MIC [3] [µg/mL] | MIC [4] [µg/mL] | MIC [5] [µg/mL] | MIC [6] [µg/mL] | MIC [7] [µg/mL] | MIC [8] [µg/mL] | MIC [9] [µg/mL] | MIC [10] [µg/mL] | MIC [11] [µg/mL]
1 | CO[C@H]1/C=C/O[C@@]2(C)Oc3c(C)c(O)c4c(c3C2=O)C(=O)C(N2CCC(NC3CCN(c5c(F)cc6c(=O)c(C(=O)O)cn(C7CC7)c6c5Cl)C3)CC2)=C(NC(=O)/C(C)=C\C=C\[C@H](C)[C@H](O)[C@@H](C)[C@@H](O)[C@@H](C)[C@H](OC(C)=O)[C@@H]1C)C4=O (mixture of isomers) [Example 29, (R/S)-3-{4-[1-(3-Carboxy-8-chloro-1-cyclopropyl-6-fluoro-4-oxo-1,4-dihydroquinolin-7-yl)-pyrrolidin-3-ylamino]-piperidin-1-yl}rifamycin S] | 0.008 to 0.063 (≈ 0.007 to 0.0551 µM) | 2 to 32 (≈ 1.75 to 28 µM) | 0.008 to 0.063 (≈ 0.007 to 0.0551 µM) | 0.5 to 64 | 0.125 to 2 (≈ 0.109 to 1.75 µM) | 0.06 to 32 (≈ 0.0525 to 28 µM) | 0.004 to 0.5 (≈ 0.0035 to 0.438 µM) | 0.06 to 16 (≈ 0.0525 to 14 µM) | 0.125 to 8 (≈ 0.109 to 7 µM) | 0.008 to 0.125 (≈ 0.007 to 0.109 µM) | 0.004 to 0.5 (≈ 0.0035 to 0.438 µM)
2 | COc1c(N2CCC(NC3CCN(C4=C5NC(=O)/C(C)=C\C=C\[C@H](C)[C@H](O)[C@@H](C)[C@@H](O)[C@@H](C)[C@H](OC(C)=O)[C@H](C)[C@@H](OC)/C=C/O[C@@]6(C)Oc7c(C)c(O)c(c(c7C6=O)C4=O)C5=O)CC3)C2)c(F)cc2c(=O)c(C(=O)O)cn(C3CC3)c12 (mixture of isomers) [Example 30, (R/S)-3-{4-[1-(3-Carboxy-1-cyclopropyl-6-fluoro-8-methoxy-4-oxo-1,4-dihydroquinolin-7-yl)-pyrrolidin-3-ylamino]-piperidin-1-yl}rifamycin S] | 0.008 to 0.063 (≈ 0.00703 to 0.0553 µM) | 2 to 32 (≈ 1.76 to 28.1 µM) | 0.008 to 0.063 (≈ 0.00703 to 0.0553 µM) | 0.5 to 64 | 0.125 to 2 (≈ 0.11 to 1.76 µM) | 0.06 to 32 (≈ 0.0527 to 28.1 µM) | 0.004 to 0.5 (≈ 0.00351 to 0.439 µM) | 0.06 to 16 (≈ 0.0527 to 14.1 µM) | 0.125 to 8 (≈ 0.11 to 7.03 µM) | 0.008 to 0.125 (≈ 0.00703 to 0.11 µM) | 0.004 to 0.5 (≈ 0.00351 to 0.439 µM)
3 | COc1c(N2CCCC(NC3CCN(C4=C5NC(=O)/C(C)=C\C=C\[C@H](C)[C@H](O)[C@@H](C)[C@@H](O)[C@@H](C)[C@H](OC(C)=O)[C@H](C)[C@@H](OC)/C=C/O[C@@]6(C)Oc7c(C)c(O)c(c(c7C6=O)C4=O)C5=O)CC3)C2)c(F)cc2c(=O)c(C(=O)O)cn(C3CC3)c12 (mixture of isomers) [Example 32, (R/S)-3-{4-[1-(3-Carboxy-1-cyclopropyl-6-fluoro-8-methoxy-4-oxo-1,4-dihydroquinolin-7-yl)-piperidin-3-ylamino]-piperidin-1-yl}rifamycin S] | 0.008 to 0.063 (≈ 0.00694 to 0.0547 µM) | 2 to 32 (≈ 1.74 to 27.8 µM) | 0.008 to 0.063 (≈ 0.00694 to 0.0547 µM) | 0.5 to 64 | 0.125 to 2 (≈ 0.108 to 1.74 µM) | 0.06 to 32 (≈ 0.0521 to 27.8 µM) | 0.004 to 0.5 (≈ 0.00347 to 0.434 µM) | 0.06 to 16 (≈ 0.0521 to 13.9 µM) | 0.125 to 8 (≈ 0.108 to 6.94 µM) | 0.008 to 0.125 (≈ 0.00694 to 0.108 µM) | 0.004 to 0.5 (≈ 0.00347 to 0.434 µM)
4 | COc1c(N2CCC(N(C)C3CCN(C4=C5NC(=O)/C(C)=C\C=C\[C@H](C)[C@H](O)[C@@H](C)[C@@H](O)[C@@H](C)[C@H](OC(C)=O)[C@H](C)[C@@H](OC)/C=C/O[C@@]6(C)Oc7c(C)c(O)c(c(c7C6=O)C4=O)C5=O)CC3)C2)c(F)cc2c(=O)c(C(=O)O)cn(C3CC3)c12 (mixture of isomers) [Example 34] | 0.008 to 0.063 (≈ 0.00694 to 0.0547 µM) | 2 to 32 (≈ 1.74 to 27.8 µM) | 0.008 to 0.063 (≈ 0.00694 to 0.0547 µM) | 0.5 to 64 | 0.125 to 2 (≈ 0.108 to 1.74 µM) | 0.06 to 32 (≈ 0.0521 to 27.8 µM) | 0.004 to 0.5 (≈ 0.00347 to 0.434 µM) | 0.06 to 16 (≈ 0.0521 to 13.9 µM) | 0.125 to 8 (≈ 0.108 to 6.94 µM) | 0.008 to 0.125 (≈ 0.00694 to 0.108 µM) | 0.004 to 0.5 (≈ 0.00347 to 0.434 µM)
5 | CO[C@H]1/C=C/O[C@@]2(C)Oc3c(C)c(O)c4c(c3C2=O)C(=O)C(N2CCC(NCC3CCN(c5c(F)cc6c(=O)c(C(=O)O)cn(C7CC7)c6c5Cl)C3)CC2)=C(NC(=O)/C(C)=C\C=C\[C@H](C)[C@H](O)[C@@H](C)[C@@H](O)[C@@H](C)[C@H](OC(C)=O)[C@@H]1C)C4=O (mixture of isomers) [Example 36, (R/S)-3-{4-[1-(3-Carboxy-8-chloro-1-cyclopropyl-6-fluoro-4-oxo-1,4-dihydroquinolin-7-yl)-(pyrrolidin-3-ylmethyl)-amino]-piperidin-1-yl}rifamycin S] | 0.008 to 0.063 (≈ 0.00692 to 0.0545 µM) | 2 to 32 (≈ 1.73 to 27.7 µM) | 0.008 to 0.063 (≈ 0.00692 to 0.0545 µM) | 0.5 to 64 | 0.125 to 2 (≈ 0.108 to 1.73 µM) | 0.06 to 32 (≈ 0.0519 to 27.7 µM) | 0.004 to 0.5 (≈ 0.00346 to 0.432 µM) | 0.06 to 16 (≈ 0.0519 to 13.8 µM) | 0.125 to 8 (≈ 0.108 to 6.92 µM) | 0.008 to 0.125 (≈ 0.00692 to 0.108 µM) | 0.004 to 0.5 (≈ 0.00346 to 0.432 µM)
6 | CO[C@H]1/C=C/O[C@@]2(C)Oc3c(C)c(O)c4c(c3C2=O)C(=O)C(N2CCC(NCC3CCN(c5nc6c(cc5F)c(=O)c(C(=O)O)cn6-c5ccc(F)cc5F)C3)CC2)=C(NC(=O)/C(C)=C\C=C\[C@H](C)[C@H](O)[C@@H](C)[C@@H](O)[C@@H](C)[C@H](OC(C)=O)[C@@H]1C)C4=O (mixture of isomers) [Example 37] | 0.008 to 0.063 (≈ 0.00669 to 0.0527 µM) | 2 to 32 (≈ 1.67 to 26.8 µM) | 0.008 to 0.063 (≈ 0.00669 to 0.0527 µM) | 0.5 to 64 | 0.125 to 2 (≈ 0.105 to 1.67 µM) | 0.06 to 32 (≈ 0.0502 to 26.8 µM) | 0.004 to 0.5 (≈ 0.00335 to 0.418 µM) | 0.06 to 16 (≈ 0.0502 to 13.4 µM) | 0.125 to 8 (≈ 0.105 to 6.69 µM) | 0.008 to 0.125 (≈ 0.00669 to 0.105 µM) | 0.004 to 0.5 (≈ 0.00335 to 0.418 µM)
